From paper PMC3089805 (Chemmedchem, 2010)
Values after ≈ are worked out from the molar mass of the structure shown.

Tested on: C. jejuni strain H840
Test: MIC determination, liquid microdilution, C. jejuni
Type: cell-based
Settings: Campylobacter jejuni, H840, 27 h, read-out: MIC C. jejuni

SMILES | MIC
O=C(Nc1ncc([N+](=O)[O-])s1)c1ccccc1C(F)(F)F [Analogue 22, N-(5-Nitrothiazol-2-yl)-2-(trifluoromethyl)benzamide] | 18.9 µM (≈ 6 µg/mL)
O=C(Nc1ncc([N+](=O)[O-])s1)c1ccc(-c2ccccc2)s1 [Analogue 80, N-(5-Nitrothiazol-2-yl)-5-phenylthiophene-2-carboxamide] | 72.4 µM (≈ 24 µg/mL)
O=C(Nc1ncc([N+](=O)[O-])s1)c1ccc(F)cc1C(F)(F)F [Analogue 35, 4-Fluoro-N-(5-nitrothiazol-2-yl)-2-(trifluoromethyl)benzamide] | 23.9 µM (≈ 8.01 µg/mL)
O=C(Nc1ncc([N+](=O)[O-])s1)c1cc(Cl)sc1Cl [Analogue 75, 2,5-Dichloro-N-(5-nitrothiazol-2-yl)thiophene-3-carboxamide] | 2.3 µM (≈ 0.746 µg/mL)
O=C(Nc1ncc([N+](=O)[O-])s1)c1cc(F)c(F)c(F)c1 [Analogue 13, 3,4,5-Trifluoro-N-(5-nitrothiazol-2-yl)benzamide] | 4.9 µM (≈ 1.49 µg/mL)
O=C(Nc1ncc([N+](=O)[O-])s1)c1ccc(-c2ccoc2)o1 [Analogue 70, N-(5-Nitrothiazol-2-yl)-2,3′-bifuran-5-carboxamide] | 13.1 µM (≈ 4 µg/mL)
O=C(Cc1ccccc1)Nc1ncc([N+](=O)[O-])s1 [Analogue 43, N-(5-Nitrothiazol-2-yl)-2-phenylacetamide] | 11.4 µM (≈ 3 µg/mL)
O=C(/C=C/c1ccc(C(F)(F)F)cc1)Nc1ncc([N+](=O)[O-])s1 [Analogue 55, (E)-N-(5-Nitrothiazol-2-yl)-3-(4-(trifluoromethyl)phenyl)acrylamide] | 93.2 µM (≈ 32 µg/mL)
O=C(Nc1ncc([N+](=O)[O-])s1)c1cc(Br)c(Br)o1 [Analogue 63, 4,5-Dibromo-N-(5-nitrothiazol-2-yl)furan-2-carboxamide] | 20.2 µM (≈ 8.02 µg/mL)
CCCC(=O)Nc1ncc([N+](=O)[O-])s1 [Analogue 49, N-(5-Nitrothiazol-2-yl)butyramide] | 13.9 µM (≈ 2.99 µg/mL)
O=C(Nc1ncc([N+](=O)[O-])s1)c1ccc(-c2ccccc2)o1 [Analogue 65, N-(5-Nitrothiazol-2-yl)-5-phenylfuran-2-carboxamide] | 102 µM (≈ 32 µg/mL)
O=C(Nc1ncc([N+](=O)[O-])s1)c1cccc([N+](=O)[O-])c1O [Analogue 34, 2-Hydroxy-3-nitro-N-(5-nitrothiazol-2-yl)benzamide] | 103 µM (≈ 32 µg/mL)
O=C(Nc1ncc([N+](=O)[O-])s1)c1ccc(-c2cccc([N+](=O)[O-])c2)o1 [Analogue 69, 5-(3-Nitrophenyl)-N-(5-nitrothiazol-2-yl)furan-2-carboxamide] | 16.7 µM (≈ 6.02 µg/mL)
COc1cc([N+](=O)[O-])ccc1C(=O)Nc1ncc([N+](=O)[O-])s1 [Analogue 33, 2-Methoxy-4-nitro-N-(5-nitrothiazol-2-yl)benzamide] | 9.3 µM (≈ 3.02 µg/mL)
CCCCCCCCCC(=O)Nc1ncc([N+](=O)[O-])s1 [Analogue 52, N-(5-Nitrothiazol-2-yl)decanamide] | 107 µM (≈ 32 µg/mL)
O=C(Nc1ncc([N+](=O)[O-])s1)c1ccc(F)cc1F [Analogue 9, 2,4-Difluoro-N-(5-nitrothiazol-2-yl)benzamide] | 7 µM (≈ 2 µg/mL)
O=C(Nc1ncc([N+](=O)[O-])s1)c1cc(F)c(F)c(F)c1F [Analogue 15, 2,3,4,5-Tetrafluoro-N-(5-nitrothiazol-2-yl)benzamide] | 4.7 µM (≈ 1.51 µg/mL)
O=C(C=Cc1ccccc1)Nc1ncc([N+](=O)[O-])s1 [Analogue 54, N-(5-Nitrothiazol-2-yl)cinnamamide] | 2.7 µM (≈ 0.743 µg/mL)
O=C(Nc1ncc([N+](=O)[O-])s1)c1cc(C(F)(F)F)ccc1Cl [Analogue 39, 2-Chloro-N-(5-nitrothiazol-2-yl)-5-(trifluoromethyl)benzamide] | 17.1 µM (≈ 6.01 µg/mL)
CCCCCCCC(=O)Nc1ncc([N+](=O)[O-])s1 [Analogue 51, N-(5-Nitrothiazol-2-yl)octanamide] | 5.5 µM (≈ 1.49 µg/mL)
N#Cc1cccc(C(=O)Nc2ncc([N+](=O)[O-])s2)c1 [Analogue 20, 3-Cyano-N-(5-nitrothiazol-2-yl)benzamide] | 36.5 µM (≈ 10 µg/mL)
O=C(Nc1ncc([N+](=O)[O-])s1)c1ccc(-c2ccsc2)s1 [Analogue 82, N-(5-Nitrothiazol-2-yl)-2,3′-bithiophene-5-carboxamide] | 94.8 µM (≈ 32 µg/mL)
O=C(Nc1ncc([N+](=O)[O-])s1)c1ccc([N+](=O)[O-])cc1 [Analogue 27, 4-Nitro-N-(5-nitrothiazol-2-yl)benzamide] | 13.6 µM (≈ 4 µg/mL)

Tested on: H. pylori strain 26695
Test: MIC determination, liquid microdilution, H. pylori
Type: cell-based
Settings: Helicobacter pylori, 26695, 27 h, read-out: MIC H. pylori

SMILES | MIC
O=C(Nc1ncc([N+](=O)[O-])s1)c1ccccc1C(F)(F)F [Analogue 22, N-(5-Nitrothiazol-2-yl)-2-(trifluoromethyl)benzamide] | 1.6 µM (≈ 0.508 µg/mL)
O=C(Nc1ncc([N+](=O)[O-])s1)c1ccc(-c2ccccc2)s1 [Analogue 80, N-(5-Nitrothiazol-2-yl)-5-phenylthiophene-2-carboxamide] | 1.5 µM (≈ 0.497 µg/mL)
O=C(Nc1ncc([N+](=O)[O-])s1)c1ccc(F)cc1C(F)(F)F [Analogue 35, 4-Fluoro-N-(5-nitrothiazol-2-yl)-2-(trifluoromethyl)benzamide] | 3.4 µM (≈ 1.14 µg/mL)
O=C(Nc1ncc([N+](=O)[O-])s1)c1cc(Cl)sc1Cl [Analogue 75, 2,5-Dichloro-N-(5-nitrothiazol-2-yl)thiophene-3-carboxamide] | 1.5 µM (≈ 0.486 µg/mL)
O=C(Nc1ncc([N+](=O)[O-])s1)c1cc(F)c(F)c(F)c1 [Analogue 13, 3,4,5-Trifluoro-N-(5-nitrothiazol-2-yl)benzamide] | 1.2 µM (≈ 0.364 µg/mL)
O=C(Nc1ncc([N+](=O)[O-])s1)c1ccc(-c2ccoc2)o1 [Analogue 70, N-(5-Nitrothiazol-2-yl)-2,3′-bifuran-5-carboxamide] | 1.6 µM (≈ 0.488 µg/mL)
O=C(Cc1ccccc1)Nc1ncc([N+](=O)[O-])s1 [Analogue 43, N-(5-Nitrothiazol-2-yl)-2-phenylacetamide] | 0.7 µM (≈ 0.184 µg/mL)
O=C(/C=C/c1ccc(C(F)(F)F)cc1)Nc1ncc([N+](=O)[O-])s1 [Analogue 55, (E)-N-(5-Nitrothiazol-2-yl)-3-(4-(trifluoromethyl)phenyl)acrylamide] | 0.5 µM (≈ 0.172 µg/mL)
O=C(Nc1ncc([N+](=O)[O-])s1)c1cc(Br)c(Br)o1 [Analogue 63, 4,5-Dibromo-N-(5-nitrothiazol-2-yl)furan-2-carboxamide] | 2.8 µM (≈ 1.11 µg/mL)
CCCC(=O)Nc1ncc([N+](=O)[O-])s1 [Analogue 49, N-(5-Nitrothiazol-2-yl)butyramide] | 3.5 µM (≈ 0.753 µg/mL)
O=C(Nc1ncc([N+](=O)[O-])s1)c1ccc(-c2ccccc2)o1 [Analogue 65, N-(5-Nitrothiazol-2-yl)-5-phenylfuran-2-carboxamide] | 2.4 µM (≈ 0.757 µg/mL)
O=C(Nc1ncc([N+](=O)[O-])s1)c1cccc([N+](=O)[O-])c1O [Analogue 34, 2-Hydroxy-3-nitro-N-(5-nitrothiazol-2-yl)benzamide] | 19.3 µM (≈ 5.99 µg/mL)
O=C(Nc1ncc([N+](=O)[O-])s1)c1ccc(-c2cccc([N+](=O)[O-])c2)o1 [Analogue 69, 5-(3-Nitrophenyl)-N-(5-nitrothiazol-2-yl)furan-2-carboxamide] | 6.9 µM (≈ 2.49 µg/mL)
COc1cc([N+](=O)[O-])ccc1C(=O)Nc1ncc([N+](=O)[O-])s1 [Analogue 33, 2-Methoxy-4-nitro-N-(5-nitrothiazol-2-yl)benzamide] | 0.6 µM (≈ 0.195 µg/mL)
CCCCCCCCCC(=O)Nc1ncc([N+](=O)[O-])s1 [Analogue 52, N-(5-Nitrothiazol-2-yl)decanamide] | 0.8 µM (≈ 0.24 µg/mL)
O=C(Nc1ncc([N+](=O)[O-])s1)c1ccc(F)cc1F [Analogue 9, 2,4-Difluoro-N-(5-nitrothiazol-2-yl)benzamide] | 0.4 µM (≈ 0.114 µg/mL)
O=C(Nc1ncc([N+](=O)[O-])s1)c1cc(F)c(F)c(F)c1F [Analogue 15, 2,3,4,5-Tetrafluoro-N-(5-nitrothiazol-2-yl)benzamide] | 1.2 µM (≈ 0.385 µg/mL)
O=C(C=Cc1ccccc1)Nc1ncc([N+](=O)[O-])s1 [Analogue 54, N-(5-Nitrothiazol-2-yl)cinnamamide] | 0.3 µM (≈ 0.0826 µg/mL)
O=C(Nc1ncc([N+](=O)[O-])s1)c1cc(C(F)(F)F)ccc1Cl [Analogue 39, 2-Chloro-N-(5-nitrothiazol-2-yl)-5-(trifluoromethyl)benzamide] | 1.1 µM (≈ 0.387 µg/mL)
CCCCCCCC(=O)Nc1ncc([N+](=O)[O-])s1 [Analogue 51, N-(5-Nitrothiazol-2-yl)octanamide] | 1.4 µM (≈ 0.38 µg/mL)
N#Cc1cccc(C(=O)Nc2ncc([N+](=O)[O-])s2)c1 [Analogue 20, 3-Cyano-N-(5-nitrothiazol-2-yl)benzamide] | 4.1 µM (≈ 1.12 µg/mL)
O=C(Nc1ncc([N+](=O)[O-])s1)c1ccc(-c2ccsc2)s1 [Analogue 82, N-(5-Nitrothiazol-2-yl)-2,3′-bithiophene-5-carboxamide] | 3 µM (≈ 1.01 µg/mL)
O=C(Nc1ncc([N+](=O)[O-])s1)c1ccc([N+](=O)[O-])cc1 [Analogue 27, 4-Nitro-N-(5-nitrothiazol-2-yl)benzamide] | 1.3 µM (≈ 0.383 µg/mL)
